According to publication PMC8745345, “Hydroxy Pentacyclic Triterpene Acid, Kaempferol, Inhibits the Human 5-Hydroxytryptamine Type 3A Receptor Activity” (International Journal of Molecular Sciences, 2022):
Residue numbers refer to the chain shown, from its start.

Experiments:
[1] = target: T1, human 5-HT3A receptor R65A mutant (Homo sapiens, UniProt P46098, R87A); assay: Two-electrode voltage clamp, I5-HT inhibition, R65A mutant; format: cell-based; conditions: −80 mV
T1 sequence (P46098 24-478 R87A): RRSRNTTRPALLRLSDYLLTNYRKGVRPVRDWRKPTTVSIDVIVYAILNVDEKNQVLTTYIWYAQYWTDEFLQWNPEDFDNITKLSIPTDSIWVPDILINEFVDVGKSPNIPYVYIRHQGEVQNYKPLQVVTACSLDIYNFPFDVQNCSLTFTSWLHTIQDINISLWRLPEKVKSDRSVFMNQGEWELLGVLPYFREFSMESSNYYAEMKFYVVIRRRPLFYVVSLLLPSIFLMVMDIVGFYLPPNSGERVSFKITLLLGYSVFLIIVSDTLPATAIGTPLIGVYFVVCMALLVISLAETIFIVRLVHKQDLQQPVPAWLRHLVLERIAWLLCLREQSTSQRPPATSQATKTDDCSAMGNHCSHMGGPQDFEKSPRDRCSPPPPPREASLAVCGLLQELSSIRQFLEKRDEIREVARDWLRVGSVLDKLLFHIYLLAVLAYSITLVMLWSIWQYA
Protocol: Xenopus oocytes were used in this study as cells for expression of human 5-HT3A receptor. All female frogs used in this experiment were obtained from the Korean Xenopus Resource Center for Research (KXRCR000001). […] Xenopus oocytes were extracted during ice incubation state and isolated as single oocytes using collagenase II (2 mg/mL) in OR2 buffer (82.5 mM NaCl, 2 mM KCl, 1 mM MgCl2, 5 mM HEPES, pH 7.4). Isolated oocytes were incubated with ND96 incubation buffer (96 mM NaCl, 2 mM KCl, 1 mM MgCl2, 1.8 mM CaCl2, 5 mM HEPES, 2.5 mM sodium pyruvate, and 50 mg/mL gentamycin, pH 7.4) at 18 °C until the experiment was performed. Human 5-HT3A receptor mRNA was injected into oocytes using a nanoinjector (Drummond Scientific, Broomall, PA, USA) with a mineral-filled 10 μL microdispenser (VWR, Piscataway, NJ, USA).
To confirm the KAE activity on the human 5-HT3A receptor, a two-electrode voltage clamp (OC-725C; Warner Instruments, Hamden, CT, USA) with a Digitata 1550A was used. For the experiment, induced-inward current was converted to digital data with pClamp 10 software (Axon Instruments, Union City, CA, USA). All experiments were performed at room temperature using an oocyte clamp equipped with Digidata. The membrane holding potential was −80 mV.

[2] = target: T2, human 5-HT3A receptor I144A mutant (Homo sapiens, UniProt P46098); assay: Two-electrode voltage clamp, I5-HT inhibition, I144A mutant; format: cell-based; conditions: −80 mV
T2 sequence (P46098 24-478): T1 sequence (P46098 24-478 R87A) with A64R
Protocol: Human 5-HT3A receptor cDNA was linearized using restriction enzyme XhoI. In vitro transcription was performed using an mMESSAGE mMACHINE T7 Transcription Kit (Thermo Fisher Scientific, Waltham, MA, USA). The final mRNA product was dissolved in 1X Diethyl Pyrocarbonate (RNase-free water) at a final concentration of 1 μg/μL and kept in a deep-freezer at −80 °C until used.
Xenopus oocytes were used in this study as cells for expression of human 5-HT3A receptor. All female frogs used in this experiment were obtained from the Korean Xenopus Resource Center for Research (KXRCR000001). Xenopus management followed the guideline of Chonnam National University institution guidelines (CNU IACUC-YB-2016-07, July 2016). Xenopus oocytes were extracted during ice incubation state and isolated as single oocytes using collagenase II (2 mg/mL) in OR2 buffer (82.5 mM NaCl, 2 mM KCl, 1 mM MgCl2, 5 mM HEPES, pH 7.4). […]
The voltage relationship experiment for confirming the relationship between induce-inward current and voltage, the voltage was varied from −80 mV to +60 mV using a ramp protocol. […] All recording data were analyzed using Clampfit 9.0 (Molecular Devices, San Jose, CA, USA). […]
All presented experiments were performed at least three times for scientific verification. […] Induced-inward current data were analyzed with SigmaPlot 10.0 software (Systat Software, Inc., San Jose, CA, USA). […]

For `O=c1c(O)c(-c2ccc(O)cc2)oc2cc(O)cc(O)c12` [KAE, kaempferol], the IC50 [1] was 44.7 ± 9.1 µM, the Vmax [1] was 82.6 ± 7.4% and the “n (Hill coefficient)” value [1] was 1.8 ± 0.7. The IC50 [2] was 34.9 ± 11.2 µM and the “n (Hill coefficient)” value [2] was 1.5 ± 0.4.
